From patent US11571423B2, “Small molecule modulators of human sting” (Curadev Pharma Limited, priority 2017, dated 2023)

Legend:
hSTING(H232) = hSTING(H232) (Homo sapiens, UniProt Q86WV6); assay: Luciferase reporter assay in HEK293T-hSTING-Luciferase cells, H232/REF polymorph; type: cell-based; conditions: H232/REF polymorph of human STING, EC50 range class
Excerpt: (§1) Stable Cell Line Generation • a) Stable STING expressing cells—Stable HEK293T STING-expressing cell lines were generated using plasmids purchased from Invivogen, CA, USA, that contain STING cDNA cloned into the pUNO-1 vector under hEF1-HTLV promoter and containing the Blasticidin selection cassette. The plasmids hSTING(R232), hSTING(H232), hSTING(HAQ) were directly procured from Invivogen while hSTING (AQ) and hSTING (Q) were derived from hSTING(HAQ) and hSTING (R232) plasmids respectively by using a PCR based site directed mutagenesis method. These vectors were individually transfected into HEK293T cells using Lipofectamine (Invitrogen) and transfected cells were selected under Blasticidin selection. These transfected cells were further subjected to clonal selection using the limiting dilution method to obtain clonally pure populations of HEK cells transfected with each of the above mentioned human STING variants. Only those clones were selected in which ligand independent activation of STING was minimal. • b) Stable Luciferase reporter gene expressing cells—Stable HEK293T Luciferase reporter gene expressing cell lines were generated using pCDNA4 plasmids under an IRF-inducible promoter. This promoter is comprised of five tandem interferon-stimulated response elements (ISRE) fused to an ISG54 minimal promoter. This vector was transfected into HEK293T cells using Lipofectamine (Invitrogen) and transfected cells were selected under Zeocin selection. These transfected cells were further subjected to clonal selection using the limiting dilution method to obtain clonally pure populations of HEK cells transfected the Luciferase reporter construct. Only those clones were selected in which ligand independent induction of luciferase was minimal.
(§2) 5×10^5 clonally selected HEK293T-hSTING-Luciferase cells were seeded in 384-well plates in growth medium and stimulated with novel compounds. After 20 hr of stimulation supernatant were removed and secretary reporter gene activity were measured using the Quanti-Luc detection system (Invivogen) on a Spectramax i3X luminometer.
(§3) In the tables below, EC50 value ranges for exemplary compounds are given.
(§4) Single nucleotide polymorphisms of human STING have been described, which can affect the functional potency of compounds that modulate the activity of the STING protein (see Yi et. al., PLoS One, October 2013, 8(10), e77846). The 5 major polymorphisms of human STING are shown in FIG. 1, with their prevalence in human populations indicated.
(§5) The tables below show the potency of selected compounds of the invention against the most common polymorphisms.

hSTING(R232) = hSTING(R232) (Homo sapiens, UniProt Q86WV6, H232R); assay: Luciferase reporter assay in HEK293T-hSTING-Luciferase cells, R232 (wild type) human STING; type: cell-based; conditions: 20 hr stimulation, read-out: R232 human activity (EC50 range)
Sequence of hSTING(R232) (Q86WV6 whole entry H232R): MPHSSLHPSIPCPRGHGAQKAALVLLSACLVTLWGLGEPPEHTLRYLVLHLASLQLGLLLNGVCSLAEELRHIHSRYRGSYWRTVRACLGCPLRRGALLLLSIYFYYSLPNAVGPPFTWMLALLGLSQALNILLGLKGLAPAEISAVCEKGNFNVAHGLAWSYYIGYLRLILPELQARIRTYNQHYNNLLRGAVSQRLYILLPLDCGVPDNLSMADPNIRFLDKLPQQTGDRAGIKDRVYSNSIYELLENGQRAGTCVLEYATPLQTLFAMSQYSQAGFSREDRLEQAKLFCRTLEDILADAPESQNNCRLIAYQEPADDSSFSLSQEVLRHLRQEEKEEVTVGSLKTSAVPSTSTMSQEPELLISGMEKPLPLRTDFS
How it was run: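 Clonal HEK293T cells stably expressing STING from a pUNO-1 plasmid plus an ISRE/ISG54-driven secreted luciferase reporter; 5×10^5 cells stimulated with compound for 20 hr. Supernatant luciferase read by luminescence, giving fold-induction over baseline and EC50.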

hSTING(HAQ) = hSTING(HAQ) (Homo sapiens, UniProt Q86WV6, G230A/H232R/R293Q/R71H); assay: Luciferase reporter assay in HEK293T-hSTING-Luciferase cells, HAQ polymorph; type: cell-based; conditions: HAQ polymorph of human STING, EC50 range class
Sequence of hSTING(HAQ) (Q86WV6 whole entry R71H/G230A/H232R/R293Q): as the sequence (Q86WV6 whole entry H232R) above, with R71H, G230A, R293Q counted along it
Excerpt: as §1, §2, §3, §4, §5

IRF pathway = assay: Reporter gene expression assay in THP1-Dual cells, IRF axis (secreted Lucia luciferase); type: cell-based, human; conditions: Homo sapiens, 20 hr stimulation, EC50 range class, read-out: THP-IRF activity
Protocol: (§6) THP1-Dual™ cells (Invivogen) were derived from the human THP-1 monocyte cell line by stable integration of two inducible reporter constructs. As a result, THP1-Dual™ cells allow the simultaneous study of the NF-κB pathway, by monitoring the activity of secreted SEAP, and the IRF pathway, by assessing the activity of a secreted luciferase (Lucia). 5×10^5 THP1-Dual™ cells were seeded in 384-well plates in growth medium and stimulated with novel compounds. After 20 hr of stimulation supernatants were removed and reporter proteins were readily measured in the cell culture supernatant using QUANTI-Blue™ (Invivogen), a SEAP detection reagent, and QUANTI-Luc™ (Invivogen), a luciferase detection reagent on a Spectramax i3X luminometer.
(§7) EC50 value ranges for exemplary compounds tested in the above assay are given.

[1] = target: cynomolgus monkey STING protein (Macaca fascicularis, UniProt A0A2R3XZA6); assay: Luciferase reporter assay, cynomolgus monkey STING overexpressed in HEK293T cells; type: cell-based; conditions: cynomolgus monkey STING overexpressed in HEK293T cells; read-out: Cynomolgus monkey STING activity (EC50 range)
Sequence of cynomolgus monkey STING protein (A0A2R3XZA6 entry or part of it): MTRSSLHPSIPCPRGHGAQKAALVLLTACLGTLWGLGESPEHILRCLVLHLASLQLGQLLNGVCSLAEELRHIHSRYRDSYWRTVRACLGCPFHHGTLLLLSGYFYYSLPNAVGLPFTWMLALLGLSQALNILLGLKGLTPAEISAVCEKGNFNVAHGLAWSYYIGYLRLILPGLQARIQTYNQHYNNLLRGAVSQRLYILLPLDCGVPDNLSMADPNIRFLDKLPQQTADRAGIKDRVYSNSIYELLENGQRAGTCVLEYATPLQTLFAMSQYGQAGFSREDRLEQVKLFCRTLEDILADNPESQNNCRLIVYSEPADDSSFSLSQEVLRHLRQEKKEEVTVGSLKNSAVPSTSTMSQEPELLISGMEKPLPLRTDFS
How it was run: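 HEK293T cells overexpressing cynomolgus STING with a secreted luciferase reporter were stimulated with compound for 20 hr. Supernatant reporter activity was then measured by Quanti-Luc luminescence, and EC50 values were derived.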

NF-κB pathway = assay: Reporter gene expression assay in THP1-Dual cells, NFkB axis (secreted SEAP); type: cell-based, human; conditions: Homo sapiens, 20 hr stimulation, EC50 range class, read-out: THP-NFκB activity
Protocol: as §6, §7

Measured: EC50

Sequence of hSTING(H232) (Q86WV6 whole entry): as the sequence (Q86WV6 whole entry H232R) above, with R232H counted along it

C[C@H]1c2ccc(C(=O)NCc3c(F)cc(F)cc3F)cc2N(Cc2c(F)ccc(C(N)=O)c2F)C(=O)N1C [Example 141, (S)-1-(3-Carbamoyl-2,6-difluorobenzyl)-3,4-dimethyl-2-oxo-N-(2,4,6-trifluorobenzyl)-1,2,3,4-tetrahydroquinazoline-7-carboxamide]
< 1000 nM: all assays above

C[C@H]1c2ccc(C(=O)NCc3c(F)cc(F)cc3F)cc2N(Cc2cc(O)ccc2F)C(=O)N1C [Example 262, (S)-1-(2-fluoro-5-hydroxybenzyl)-3,4-dimethyl-2-oxo-N-(2,4,6-trifluorobenzyl)-1,2,3,4-tetrahydroquinazoline-7-carboxamide]
< 1000 nM: all assays above

C[C@H]1c2ccc(C(=O)NCc3c(F)cc(F)cc3F)cc2N(Cc2cc(O)cc(F)c2F)C(=O)N1C [Example 281, (S)-1-(2,3-difluoro-5-hydroxybenzyl)-3,4-dimethyl-2-oxo-N-(2,4,6-trifluorobenzyl)-1,2,3,4-tetrahydroquinazoline-7-carboxamide]
< 1000 nM: all assays above

Cc1cccc(F)c1CN1C(=O)N(C)C(C)c2ccc(C(=O)NCc3c(F)cc(F)cc3F)cc21 (stereo not drawn) [Example 162, 1-(2-fluoro-6-methylbenzyl)-3,4-dimethyl-2-oxo-N-(2,4,6-trifluorobenzyl)-1,2,3,4-tetrahydroquinazoline-7-carboxamide]
< 1000 nM: all assays above

C[C@H]1c2ccc(C(=O)NCc3c(F)cc(F)cc3F)cc2N(Cc2c(F)ccc(F)c2Cl)C(=O)N1C [Example 179, (S)-1-(2-chloro-3,6-difluorobenzyl)-3,4-dimethyl-2-oxo-N-(2,4,6-trifluorobenzyl)-1,2,3,4-tetrahydroquinazoline-7-carboxamide]
< 1000 nM: all assays above

C[C@H]1c2ccc(C(=O)NCc3c(F)cc(F)cc3F)cc2N(Cc2c(F)ccc(OCCCO)c2F)C(=O)N1C [Example 257, (S)-1-(2,6-difluoro-3-(3-hydroxypropoxy)benzyl)-3,4-dimethyl-2-oxo-N-(2,4,6-trifluorobenzyl)-1,2,3,4-tetrahydroquinazoline-7-carboxamide]
1000 to 10000 nM: [1]
< 1000 nM: all other assays above

C[C@H]1c2ccc(C(=O)NCc3c(F)cc(F)cc3F)cc2N(Cc2c(F)ccc(OCCO)c2Cl)C(=O)N1C [Example 137, (S)-1-(2-Chloro-6-fluoro-3-(2-hydroxyethoxy)benzyl)-3,4-dimethyl-2-oxo-N-(2,4,6-trifluorobenzyl)-1,2,3,4-tetrahydroquinazoline-7-carboxamide]
< 1000 nM: all assays above
